Biological target: purified human, His-tagged PRC2 complex (Homo sapiens (Human), UniProt O75530)
Experiment: Hot Spot HMT assay, inhibition of PRC2 enzymatic activity
Type: biochemical
Conditions: 10 nM PRC2 complex, 1 μM 3H-SAM, core histone H3, 10-point dose-response
Method in brief: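 Methyl transfer from 1 μM tritiated SAM onto 0.05 mg/ml core histone H3, catalysed by 10 nM His/Flag-tagged human PRC2 holoenzyme, was run 1 hr at 30° C after a 20 min compound preincubation. Serial dilutions began at 1.0 μM; product captured on filters and counted.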

Sequence of purified human, His-tagged PRC2 complex (O75530 whole entry): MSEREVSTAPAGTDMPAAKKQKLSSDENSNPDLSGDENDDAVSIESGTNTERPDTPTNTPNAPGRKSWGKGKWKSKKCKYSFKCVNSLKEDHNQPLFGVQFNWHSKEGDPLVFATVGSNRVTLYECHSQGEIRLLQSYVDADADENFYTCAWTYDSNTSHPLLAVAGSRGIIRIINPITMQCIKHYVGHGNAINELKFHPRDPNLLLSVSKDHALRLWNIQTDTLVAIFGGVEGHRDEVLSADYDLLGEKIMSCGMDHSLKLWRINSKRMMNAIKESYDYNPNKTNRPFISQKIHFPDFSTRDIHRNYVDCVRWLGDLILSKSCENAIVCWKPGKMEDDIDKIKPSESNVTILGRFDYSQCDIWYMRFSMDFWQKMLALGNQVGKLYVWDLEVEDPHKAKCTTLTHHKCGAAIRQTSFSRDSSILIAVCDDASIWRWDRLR
Sequence of purified human, His-tagged PRC2 complex (Q15910 whole entry partner): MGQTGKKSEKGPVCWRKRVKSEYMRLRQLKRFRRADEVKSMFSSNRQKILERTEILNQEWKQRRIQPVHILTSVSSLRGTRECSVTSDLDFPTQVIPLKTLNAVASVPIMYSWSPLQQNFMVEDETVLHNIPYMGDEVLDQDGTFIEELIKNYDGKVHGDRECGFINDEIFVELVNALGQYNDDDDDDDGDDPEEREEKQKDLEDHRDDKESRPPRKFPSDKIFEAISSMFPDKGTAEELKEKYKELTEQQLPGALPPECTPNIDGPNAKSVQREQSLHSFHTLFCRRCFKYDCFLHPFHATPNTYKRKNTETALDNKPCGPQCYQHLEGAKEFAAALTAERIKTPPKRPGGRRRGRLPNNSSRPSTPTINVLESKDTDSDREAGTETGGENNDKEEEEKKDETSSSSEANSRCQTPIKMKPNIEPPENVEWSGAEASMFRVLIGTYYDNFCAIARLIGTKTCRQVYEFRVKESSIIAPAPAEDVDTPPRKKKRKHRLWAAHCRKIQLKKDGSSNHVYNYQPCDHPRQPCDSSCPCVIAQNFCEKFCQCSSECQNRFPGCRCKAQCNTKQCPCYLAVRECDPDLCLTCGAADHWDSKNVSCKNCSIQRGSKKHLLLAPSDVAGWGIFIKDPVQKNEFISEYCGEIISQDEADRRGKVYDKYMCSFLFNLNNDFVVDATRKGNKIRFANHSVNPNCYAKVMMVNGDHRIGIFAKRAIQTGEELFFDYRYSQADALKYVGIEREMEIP
Sequence of purified human, His-tagged PRC2 complex (Q15022 whole entry partner): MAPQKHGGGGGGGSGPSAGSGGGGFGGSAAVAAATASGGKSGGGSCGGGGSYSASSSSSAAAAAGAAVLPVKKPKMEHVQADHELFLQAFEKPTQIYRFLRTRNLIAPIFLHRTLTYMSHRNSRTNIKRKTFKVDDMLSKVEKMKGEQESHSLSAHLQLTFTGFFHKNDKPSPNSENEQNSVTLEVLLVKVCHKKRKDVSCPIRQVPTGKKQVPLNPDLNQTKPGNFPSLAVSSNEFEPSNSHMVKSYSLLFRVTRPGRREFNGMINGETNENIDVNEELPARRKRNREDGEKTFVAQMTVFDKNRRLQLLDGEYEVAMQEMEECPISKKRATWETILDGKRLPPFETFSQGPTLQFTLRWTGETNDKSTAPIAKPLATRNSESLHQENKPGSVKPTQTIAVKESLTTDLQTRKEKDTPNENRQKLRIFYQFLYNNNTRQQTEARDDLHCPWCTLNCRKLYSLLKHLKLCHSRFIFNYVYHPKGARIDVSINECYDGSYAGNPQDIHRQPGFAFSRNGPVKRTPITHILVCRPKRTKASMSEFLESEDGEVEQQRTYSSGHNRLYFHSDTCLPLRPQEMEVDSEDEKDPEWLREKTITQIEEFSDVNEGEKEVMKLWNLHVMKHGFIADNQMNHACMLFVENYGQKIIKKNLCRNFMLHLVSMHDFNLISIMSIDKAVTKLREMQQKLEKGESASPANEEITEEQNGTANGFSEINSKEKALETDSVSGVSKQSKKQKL
Sequence of purified human, His-tagged PRC2 complex (Q6ZN18 whole entry partner): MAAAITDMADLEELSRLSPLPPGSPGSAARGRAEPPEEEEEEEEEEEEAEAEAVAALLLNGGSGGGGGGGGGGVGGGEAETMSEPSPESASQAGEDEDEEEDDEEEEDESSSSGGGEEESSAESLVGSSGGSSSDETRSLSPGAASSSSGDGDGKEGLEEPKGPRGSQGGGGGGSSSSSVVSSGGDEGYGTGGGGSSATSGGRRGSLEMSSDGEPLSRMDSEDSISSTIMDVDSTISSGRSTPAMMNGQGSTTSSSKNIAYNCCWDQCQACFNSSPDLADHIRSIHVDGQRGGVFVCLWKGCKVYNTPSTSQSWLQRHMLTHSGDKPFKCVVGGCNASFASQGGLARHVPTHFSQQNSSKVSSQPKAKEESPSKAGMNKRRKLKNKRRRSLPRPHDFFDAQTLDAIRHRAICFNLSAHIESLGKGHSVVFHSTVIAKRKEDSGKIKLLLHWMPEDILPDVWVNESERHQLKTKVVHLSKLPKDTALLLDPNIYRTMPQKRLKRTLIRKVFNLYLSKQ
Sequence of purified human, His-tagged PRC2 complex (Q09028 whole entry partner): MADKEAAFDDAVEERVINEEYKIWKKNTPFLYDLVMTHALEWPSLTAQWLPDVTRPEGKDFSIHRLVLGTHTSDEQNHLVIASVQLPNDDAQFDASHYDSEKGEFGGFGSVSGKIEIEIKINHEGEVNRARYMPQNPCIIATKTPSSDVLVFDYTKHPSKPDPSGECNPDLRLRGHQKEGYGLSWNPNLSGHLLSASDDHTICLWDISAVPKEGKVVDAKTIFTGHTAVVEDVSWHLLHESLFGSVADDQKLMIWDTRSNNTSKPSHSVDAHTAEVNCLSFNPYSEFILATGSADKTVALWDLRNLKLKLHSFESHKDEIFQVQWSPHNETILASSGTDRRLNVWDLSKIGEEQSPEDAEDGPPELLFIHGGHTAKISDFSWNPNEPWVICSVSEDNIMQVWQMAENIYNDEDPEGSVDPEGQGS

| IC50 [nM] | Structure (SMILES) |
| --- | --- |
| 100 to 500 | CNCc1ccc(-c2cnc(NCc3c(F)ccc4c3CCO4)n3cc(C#N)nc23)c(C)c1 [Example 196, 5-(((5-fluoro-2,3-dihydrobenzofuran-4-yl)methyl)amino)-8-(2-methyl-4-((methylamino)methyl)phenyl)imidazo[1,2-c]pyrimidine-2-carbonitrile] |
| < 100 | CNCc1ccc(-c2cnc(NCc3c(F)ccc4c3CCO4)n3cc(C#N)nc23)cc1F [Example 197, 5-(((5-fluoro-2,3-dihydrobenzofuran-4-yl)methyl)amino)-8-(3-fluoro-4-((methylamino)methyl)phenyl)imidazo[1,2-c]pyrimidine-2-carbonitrile] |
| < 100 | CN(C)Cc1ccc(-c2cnc(NCc3c(F)ccc4c3CCO4)n3cc(C#N)nc23)c(C#N)c1 [Example 198, 8-(2-cyano-4-((dimethylamino)methyl)phenyl)-5-(((5-fluoro-2,3-dihydrobenzofuran-4-yl)methyl)amino)imidazo[1,2-c]pyrimidine-2-carbonitrile] |
| < 100 | CC(c1ccc(-c2cnc(NCc3c(F)ccc4c3CCO4)n3cc(C#N)nc23)cc1)N(C)C (stereo not drawn) [Example 199, 8-(4-(1-(dimethylamino)ethyl)phenyl)-5-(((5-fluoro-2,3-dihydrobenzofuran-4-yl)methyl)amino)imidazo[1,2-c]pyrimidine-2-carbonitrile] |
| 100 to 500 | Cc1cc(-c2cnc(NCc3c(F)ccc4c3CCO4)n3cc(C#N)nc23)ccc1CN(C)C [Example 200, 8-(4-((dimethylamino)methyl)-3-methylphenyl)-5-(((5-fluoro-2,3-dihydrobenzofuran-4-yl)methyl)amino)imidazo[1,2-c]pyrimidine-2-carbonitrile] |
| < 100 | CN(C)Cc1ccc(-c2cnc(NCc3c(F)ccc4c3CCO4)n3cc(C#N)nc23)cc1C#N [Example 201, 8-(3-cyano-4-((dimethylamino)methyl)phenyl)-5-(((5-fluoro-2,3-dihydrobenzofuran-4-yl)methyl)amino)imidazo[1,2-c]pyrimidine-2-carbonitrile] |
| < 100 | [2H]C([2H])([2H])N(Cc1ccc(-c2cnc(NCc3c(F)ccc4c3CCO4)n3cc(C#N)nc23)c(C)c1)C([2H])([2H])[2H] [Example 202, 8-(4-((bis(methyl-d3)amino)methyl)-2-methylphenyl)-5-(((5-fluoro-2,3-dihydrobenzofuran-4-yl)methyl)amino)imidazo[1,2-c]pyrimidine-2-carbonitrile] |
| 100 to 500 | N#Cc1cn2c(NCc3c(F)ccc4c3CCO4)ncc(-c3ccc4c(c3)CCNC4)c2n1 [Example 203, 5-(((5-fluoro-2,3-dihydrobenzofuran-4-yl)methyl)amino)-8-(1,2,3,4-tetrahydroisoquinolin-6-yl)imidazo[1,2-c]pyrimidine-2-carbonitrile] |
| 100 to 500 | N#Cc1cn2c(NCc3c(F)ccc4c3CCO4)ncc(-c3ccc(C4CCCN4)cc3)c2n1 (stereo not drawn) [Example 204, 5-(((5-fluoro-2,3-dihydrobenzofuran-4-yl)methyl)amino)-8-(4-(pyrrolidin-2-yl)phenyl)imidazo[1,2-c]pyrimidine-2-carbonitrile] |
| 100 to 500 | N#Cc1cn2c(NCc3c(F)ccc4c3CCO4)ncc(-c3ccc4c(c3)CNC4)c2n1 [Example 205, 5-(((5-fluoro-2,3-dihydrobenzofuran-4-yl)methyl)amino)-8-(isoindolin-5-yl)imidazo[1,2-c]pyrimidine-2-carbonitrile] |
| 100 to 500 | COCCOc1ccc(-c2cnc(NCc3c(F)ccc4c3CCO4)n3cc(C#N)nc23)c(C)c1 [Example 206, 5-(((5-fluoro-2,3-dihydrobenzofuran-4-yl)methyl)amino)-8-(4-(2-methoxyethoxy)-2-methylphenyl)imidazo[1,2-c]pyrimidine-2-carbonitrile] |
| < 100 | Cc1cc(CN(C)C)ccc1-c1cnc(NCc2c(F)ccc3c2C(O)CO3)n2cc(C#N)nc12 (stereo not drawn) [Example 207, 8-(4-((dimethylamino)methyl)-2-methylphenyl)-5-(((5-fluoro-3-hydroxy-2,3-dihydrobenzofuran-4-yl)methyl)amino)imidazo[1,2-c]pyrimidine-2-carbonitrile] |
